# Laboratory results reported in article PMC10860144, “Exploring the Dispersion and Electrostatic Components in Arene–Arene Interactions between Ligands and G4 DNA to Develop G4-Ligands” (Journal of Medicinal Chemistry, 2024).
# Where two headings read alike, the source gives them in different places.
# How the values were obtained:
# THP-1 cell line = assay: THP-1 cell viability (cytotoxicity); assay type: cell-based, human; settings: read-out: Cell viability IC50 (THP1)
# Method: THP1 cell viability was measured according to a previously published procedure.[48] […]
# Table S3. Cell permeability and cell viability for 5 and 27
# Compound Cell-permeability Cell viability IC50 Cell viability IC50 Cell viability IC50
# (X x 10-6 cm/s) (THP1) (µM) (HeLa) (µM) (IHTLCP) (µM) […]
# (§1) THP1 cell viability was measured according to a previously published procedure.9
# [1] = test system: Immortalized Human Total Liver Cell Population (IHTLCP); assay: IHTLCP cell viability (PrestoBlue); assay type: cell-based; settings: 72 h
# Method: (§2) Cell viability was measured using the PrestoBlue cell viability reagent (Invitrogen) according to the manufacturer’s recommendations.
# For IHTLCP, 1850 cells/well were seeded in complete Prigrow III medium (abm) in 384-wells, black walls plate (PerkinElmer) the day before the treatment. Compounds were titrated 1/2 in DMSO, dissolved in medium, and transferred to the cells to generate the indicated final concentrations (final volume 60 μL/well). 72 h after treatment, 6 μL of PrestoBlue was added per well. Cells were incubated in PrestoBlue for 1 h at 37 °C after which fluorescence (excitation 535 nm, emission 590 nm, 20 nm bandwidth) was measured using a Synergy H4Microplate Reader. Percent viability of IHTLCP cells was calculated as FLUcmp – FLUbg/FLUDMSO – FLUbg (n = 3). […]
# a Intrinsic clearance in rat hepatocytes ((μL/min)/10^6 cells).b Intrinsic clearance in human microsomes (μL/min/mg).
# Table S3. […]
# as §2
# For HeLa cells, 5000 cells/well were seeded in complete medium on 96-wells, black walls plate the day before the treatment. […] Fluorescence (excitation 560 nm, emission 590 nm, 10 nm bandwidth) was recorded using a FLUOstar Omega Microplate Reader (BMG). […]
# as §1
# [2] = test system: G4 DNA structures in HeLa cells; assay: BG4 immunostaining of G4 DNA structures in HeLa cells; assay type: cell-based, human; settings: 24 h
# Method: The pSANG10-3F-BG4 construct, for expression and purification of recombinant BG4 (BG4), was a gift from Shankar Balasubramanian (Addgene plasmid # 55756). BG4 was purified as previously described.[49] BG4 immunostaining was performed as previously described.[50] Briefly, 60,000 HeLa cells were seeded on 13 mm glass coverslips the day before treatment. Cells were treated for 24 h with the compounds at the indicated concentrations. After treatment, cells were fixed in 2% paraformaldehyde and permeabilized in 0.1% Triton X-100 at room temperature. […] Cell nuclei were focused on the DAPI channel, and BG4-positive foci were counted in a semiautomatic mode using a customized Cell Profiler (Broad Institute) pipeline. […]
# Figure S23. Toxicity of 5 and 27 calculated as % viability of IHTLCP cells treated for 72h at the indicated concentrations compared to non-treated cells. […] IC50 and R2 determined with Graph Pad Prism is indicated. […]
# Cells were imaged with a LEICA SP8 FALCON confocal microscope equipped with a 63× oil objective (NA 1.40) using identical acquisition settings. Cell nuclei were focused on the DAPI channel, and BG4-positive foci were counted in a semiautomatic mode using a customized Cell Profiler (Broad Institute) pipeline. […]
# [3] = Homo sapiens, THP-1, THP-1 cell line
SMILES,IC50 (THP-1 cell line; [3]) [nM],IC50 (THP-1 cell line; THP-1 cell line) [nM],IC50 [1] [nM],"number of BG4 foci per cell nucleus ([2]; 2 μM, versus 1 μM and mock-treated cells)",number of BG4 foci per cell nucleus ([2]; 20 μM)
"Cc1cc(C)c2nc(Nc3nc(C)cc(NCCCN(C)C)n3)nc(C)c2c1 [Compound 5, N4-(3-(Dimethylamino)propyl)-6-methyl-N2-(4,6,8-trimethylquinazolin-2-yl)pyrimidine-2,4-diamine]",2890,2900,640,increased significantly,
"Cc1cc(C)c2nc(Nc3nc(C)cc(C)n3)nc(C)c2c1 [Compound 27, N-(4,6-Dimethylpyrimidin-2-yl)-4,6,8-trimethylquinazolin-2-amine]",> 50000,≥ 50000,35000,,not statistically fully significant
